From ChEMBL document CHEMBL1201862, “PubChem BioAssay data set” (2004)
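48-hour exposure; five concentrations; linearly interpolated endpoints. The concentration for 50% growth inhibition is given as GI50.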 Calls of active or inactive are those of the source. No stated cut-off is given here; in the data, active = GI50 up to about 1.1 µM and inactive = higher.

Key:
Assay in all cases: NCI-60 cell line screen, 48 h
NCI-H23 = system: NCI-H23
OVCAR-4 = system: OVCAR-4
COLO 205 = system: COLO 205
SK-MEL-5 = system: SK-MEL-5
HCT-116 = system: HCT-116
UACC-62 = system: UACC-62
SK-MEL-28 = system: SK-MEL-28
M14 = system: M14
IGROV-1 = system: IGROV-1
LXFL 529 = system: LXFL 529
UO-31 = system: UO-31
SNB-19 = system: SNB-19
SF-295 = system: SF-295
A549 = system: A549
MOLT-4 = system: MOLT-4
MDA-MB-231 = system: MDA-MB-231
Hs-578T = system: Hs-578T
DU-145 = system: DU-145
NCI/ADR-RES = system: NCI/ADR-RES
MDA-MB-435 = system: MDA-MB-435

Measured: GI50

COc1ccc2c(c1)[n+]([O-])c(C(=O)C/C(=N/OCCCc1ccccc1)C(=O)NC13CC4CC(CC(C4)C1)C3)c(C)[n+]2[O-]
inactive: NCI-H23 > 100 µM | OVCAR-4 > 100 µM | COLO 205 > 100 µM | SK-MEL-5 > 100 µM | HCT-116 > 100 µM | UACC-62 > 100 µM | SK-MEL-28 > 100 µM | M14 > 100 µM | IGROV-1 > 100 µM | LXFL 529 > 100 µM | UO-31 > 100 µM | SNB-19 > 100 µM | SF-295 > 100 µM | A549 > 100 µM | MOLT-4 > 100 µM

CSc1nc2c(c(O)c(C)c(=O)n2C2OCC(OC(C)=O)C(OC(C)=O)C2OC(C)=O)c(=O)n1C (stereo not given)
inactive: NCI-H23 > 100 µM | OVCAR-4 > 100 µM | COLO 205 > 100 µM | SK-MEL-5 > 100 µM | HCT-116 > 100 µM | UACC-62 > 100 µM | SK-MEL-28 > 100 µM | M14 > 100 µM | IGROV-1 > 100 µM | LXFL 529 > 100 µM | UO-31 > 100 µM | SNB-19 > 100 µM | SF-295 > 100 µM | A549 > 100 µM | MOLT-4 > 100 µM

CCCCCCCCCCCCCCCc1ccc(OCC(O)CO)cc1 (stereo not given)
inactive: NCI-H23 17.8 µM | OVCAR-4 16.3 µM | COLO 205 23.6 µM | SK-MEL-5 34 µM | HCT-116 17.1 µM | UACC-62 23.9 µM | SK-MEL-28 25.6 µM | M14 17.9 µM | IGROV-1 31.3 µM | LXFL 529 26.7 µM | UO-31 > 100 µM | SNB-19 40.1 µM | SF-295 50.1 µM | A549 22.6 µM | MOLT-4 > 100 µM

O=C(O)C1CC2CC(=O)C1C2 (stereo not given)
inactive: NCI-H23 > 100 µM | OVCAR-4 > 100 µM | COLO 205 > 100 µM | SK-MEL-5 > 100 µM | HCT-116 > 100 µM | UACC-62 > 100 µM | SK-MEL-28 > 100 µM | M14 > 100 µM | IGROV-1 > 100 µM | LXFL 529 > 100 µM | UO-31 > 100 µM | SNB-19 > 100 µM | SF-295 > 100 µM | A549 > 100 µM | MOLT-4 > 100 µM

Nc1ccc2c(SCC(=O)Nc3ccccc3-c3ccccc3NC(=O)CSc3c4ccccc4nc4cc(N)ccc34)c3ccccc3nc2c1
inactive: NCI-H23 18 µM | MDA-MB-231 > 50.4 µM | Hs-578T > 59.3 µM | DU-145 24.2 µM | OVCAR-4 29 µM | COLO 205 14.2 µM | SK-MEL-5 14.6 µM | HCT-116 24.5 µM | UACC-62 18.9 µM | SK-MEL-28 21.8 µM | M14 24.4 µM | IGROV-1 27 µM | LXFL 529 11.5 µM | NCI/ADR-RES 32.6 µM | UO-31 20 µM | SNB-19 18.9 µM | SF-295 31.5 µM | A549 41 µM | MDA-MB-435 22.1 µM | MOLT-4 3.35 µM

COc1ccc(CCN(C)C2CCC(C#N)(c3ccc(OC)c(OC)c3)CC2)cc1OC (stereo not given)
inactive: NCI-H23 > 100 µM | OVCAR-4 > 100 µM | COLO 205 26.7 µM | SK-MEL-5 56.9 µM | HCT-116 85.3 µM | UACC-62 > 100 µM | SK-MEL-28 83.8 µM | M14 > 100 µM | IGROV-1 > 100 µM | LXFL 529 > 100 µM | UO-31 > 100 µM | SNB-19 > 100 µM | SF-295 > 100 µM | A549 > 100 µM | MOLT-4 > 100 µM

CCOC(=O)/C(=C/c1ccccc1)N(CC)CC
inactive: NCI-H23 > 100 µM | OVCAR-4 > 100 µM | COLO 205 > 100 µM | SK-MEL-5 > 100 µM | HCT-116 > 100 µM | UACC-62 > 100 µM | SK-MEL-28 > 100 µM | M14 > 100 µM | IGROV-1 > 100 µM | LXFL 529 > 100 µM | UO-31 > 100 µM | SNB-19 > 100 µM | SF-295 > 100 µM | A549 > 100 µM | MOLT-4 > 100 µM
